{"source": "ChEMBL document CHEMBL1201862", "about": "“PubChem BioAssay data set” (2004)", "key": {"Large T antigen": {"molecular_target": "Large T antigen (Simian virus 40, UniProt P03070)", "sequence (P03070 whole entry)": "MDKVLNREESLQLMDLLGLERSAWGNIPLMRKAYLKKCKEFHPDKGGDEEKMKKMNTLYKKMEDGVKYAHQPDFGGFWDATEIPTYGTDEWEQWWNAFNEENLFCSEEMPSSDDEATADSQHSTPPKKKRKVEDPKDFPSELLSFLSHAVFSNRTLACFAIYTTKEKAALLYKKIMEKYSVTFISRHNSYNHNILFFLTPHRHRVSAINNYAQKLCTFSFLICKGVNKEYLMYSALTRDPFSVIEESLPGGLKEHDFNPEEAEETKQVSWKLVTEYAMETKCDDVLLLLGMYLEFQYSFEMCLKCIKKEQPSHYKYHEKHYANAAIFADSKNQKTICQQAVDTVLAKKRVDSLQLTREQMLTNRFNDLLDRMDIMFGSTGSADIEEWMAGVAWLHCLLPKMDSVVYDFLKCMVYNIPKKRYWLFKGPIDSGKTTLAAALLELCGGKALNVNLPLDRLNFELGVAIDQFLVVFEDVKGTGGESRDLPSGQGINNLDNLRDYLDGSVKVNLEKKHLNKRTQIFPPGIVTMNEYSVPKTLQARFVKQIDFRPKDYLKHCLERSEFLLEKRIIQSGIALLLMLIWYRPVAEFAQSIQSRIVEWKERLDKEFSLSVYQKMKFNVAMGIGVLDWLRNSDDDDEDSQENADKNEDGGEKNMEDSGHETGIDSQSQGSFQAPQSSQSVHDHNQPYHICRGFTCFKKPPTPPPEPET", "type": "functional, Betapolyomavirus macacae"}, "[1]": {"molecular_target": "T1, Ubiquitin-conjugating enzyme E2 N (Homo sapiens, UniProt P61088)", "T1 sequence (P61088 whole entry)": "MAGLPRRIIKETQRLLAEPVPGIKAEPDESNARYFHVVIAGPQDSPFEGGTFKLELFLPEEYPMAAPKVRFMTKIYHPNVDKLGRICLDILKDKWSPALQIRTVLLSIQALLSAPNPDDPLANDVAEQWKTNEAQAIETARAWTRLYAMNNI", "type": "functional"}, "Protein skinhead-1": {"molecular_target": "T2, Protein skinhead-1 (Caenorhabditis elegans, UniProt P34707)", "T2 sequence (P34707 whole entry)": "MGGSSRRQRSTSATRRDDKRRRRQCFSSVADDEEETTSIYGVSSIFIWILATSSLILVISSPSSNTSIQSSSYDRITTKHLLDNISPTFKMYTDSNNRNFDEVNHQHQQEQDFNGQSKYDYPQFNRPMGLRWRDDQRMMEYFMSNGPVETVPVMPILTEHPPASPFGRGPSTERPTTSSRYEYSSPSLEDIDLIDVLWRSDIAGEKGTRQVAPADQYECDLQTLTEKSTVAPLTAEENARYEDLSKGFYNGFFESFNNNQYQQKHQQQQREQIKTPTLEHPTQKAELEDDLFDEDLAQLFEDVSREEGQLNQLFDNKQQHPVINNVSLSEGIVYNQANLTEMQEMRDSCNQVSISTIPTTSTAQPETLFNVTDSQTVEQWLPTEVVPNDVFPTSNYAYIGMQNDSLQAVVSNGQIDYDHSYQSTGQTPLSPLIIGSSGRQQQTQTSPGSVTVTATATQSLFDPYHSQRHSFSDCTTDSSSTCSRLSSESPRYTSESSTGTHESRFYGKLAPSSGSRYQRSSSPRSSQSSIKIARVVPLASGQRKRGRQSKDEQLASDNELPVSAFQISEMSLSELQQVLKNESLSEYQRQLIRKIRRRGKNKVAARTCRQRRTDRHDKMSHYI", "type": "functional"}, "Fatty acid synthase [2]": {"molecular_target": "T3, Fatty acid synthase (Homo sapiens, UniProt P49327)", "T3 sequence (P49327 whole entry, the tested form may be a part)": "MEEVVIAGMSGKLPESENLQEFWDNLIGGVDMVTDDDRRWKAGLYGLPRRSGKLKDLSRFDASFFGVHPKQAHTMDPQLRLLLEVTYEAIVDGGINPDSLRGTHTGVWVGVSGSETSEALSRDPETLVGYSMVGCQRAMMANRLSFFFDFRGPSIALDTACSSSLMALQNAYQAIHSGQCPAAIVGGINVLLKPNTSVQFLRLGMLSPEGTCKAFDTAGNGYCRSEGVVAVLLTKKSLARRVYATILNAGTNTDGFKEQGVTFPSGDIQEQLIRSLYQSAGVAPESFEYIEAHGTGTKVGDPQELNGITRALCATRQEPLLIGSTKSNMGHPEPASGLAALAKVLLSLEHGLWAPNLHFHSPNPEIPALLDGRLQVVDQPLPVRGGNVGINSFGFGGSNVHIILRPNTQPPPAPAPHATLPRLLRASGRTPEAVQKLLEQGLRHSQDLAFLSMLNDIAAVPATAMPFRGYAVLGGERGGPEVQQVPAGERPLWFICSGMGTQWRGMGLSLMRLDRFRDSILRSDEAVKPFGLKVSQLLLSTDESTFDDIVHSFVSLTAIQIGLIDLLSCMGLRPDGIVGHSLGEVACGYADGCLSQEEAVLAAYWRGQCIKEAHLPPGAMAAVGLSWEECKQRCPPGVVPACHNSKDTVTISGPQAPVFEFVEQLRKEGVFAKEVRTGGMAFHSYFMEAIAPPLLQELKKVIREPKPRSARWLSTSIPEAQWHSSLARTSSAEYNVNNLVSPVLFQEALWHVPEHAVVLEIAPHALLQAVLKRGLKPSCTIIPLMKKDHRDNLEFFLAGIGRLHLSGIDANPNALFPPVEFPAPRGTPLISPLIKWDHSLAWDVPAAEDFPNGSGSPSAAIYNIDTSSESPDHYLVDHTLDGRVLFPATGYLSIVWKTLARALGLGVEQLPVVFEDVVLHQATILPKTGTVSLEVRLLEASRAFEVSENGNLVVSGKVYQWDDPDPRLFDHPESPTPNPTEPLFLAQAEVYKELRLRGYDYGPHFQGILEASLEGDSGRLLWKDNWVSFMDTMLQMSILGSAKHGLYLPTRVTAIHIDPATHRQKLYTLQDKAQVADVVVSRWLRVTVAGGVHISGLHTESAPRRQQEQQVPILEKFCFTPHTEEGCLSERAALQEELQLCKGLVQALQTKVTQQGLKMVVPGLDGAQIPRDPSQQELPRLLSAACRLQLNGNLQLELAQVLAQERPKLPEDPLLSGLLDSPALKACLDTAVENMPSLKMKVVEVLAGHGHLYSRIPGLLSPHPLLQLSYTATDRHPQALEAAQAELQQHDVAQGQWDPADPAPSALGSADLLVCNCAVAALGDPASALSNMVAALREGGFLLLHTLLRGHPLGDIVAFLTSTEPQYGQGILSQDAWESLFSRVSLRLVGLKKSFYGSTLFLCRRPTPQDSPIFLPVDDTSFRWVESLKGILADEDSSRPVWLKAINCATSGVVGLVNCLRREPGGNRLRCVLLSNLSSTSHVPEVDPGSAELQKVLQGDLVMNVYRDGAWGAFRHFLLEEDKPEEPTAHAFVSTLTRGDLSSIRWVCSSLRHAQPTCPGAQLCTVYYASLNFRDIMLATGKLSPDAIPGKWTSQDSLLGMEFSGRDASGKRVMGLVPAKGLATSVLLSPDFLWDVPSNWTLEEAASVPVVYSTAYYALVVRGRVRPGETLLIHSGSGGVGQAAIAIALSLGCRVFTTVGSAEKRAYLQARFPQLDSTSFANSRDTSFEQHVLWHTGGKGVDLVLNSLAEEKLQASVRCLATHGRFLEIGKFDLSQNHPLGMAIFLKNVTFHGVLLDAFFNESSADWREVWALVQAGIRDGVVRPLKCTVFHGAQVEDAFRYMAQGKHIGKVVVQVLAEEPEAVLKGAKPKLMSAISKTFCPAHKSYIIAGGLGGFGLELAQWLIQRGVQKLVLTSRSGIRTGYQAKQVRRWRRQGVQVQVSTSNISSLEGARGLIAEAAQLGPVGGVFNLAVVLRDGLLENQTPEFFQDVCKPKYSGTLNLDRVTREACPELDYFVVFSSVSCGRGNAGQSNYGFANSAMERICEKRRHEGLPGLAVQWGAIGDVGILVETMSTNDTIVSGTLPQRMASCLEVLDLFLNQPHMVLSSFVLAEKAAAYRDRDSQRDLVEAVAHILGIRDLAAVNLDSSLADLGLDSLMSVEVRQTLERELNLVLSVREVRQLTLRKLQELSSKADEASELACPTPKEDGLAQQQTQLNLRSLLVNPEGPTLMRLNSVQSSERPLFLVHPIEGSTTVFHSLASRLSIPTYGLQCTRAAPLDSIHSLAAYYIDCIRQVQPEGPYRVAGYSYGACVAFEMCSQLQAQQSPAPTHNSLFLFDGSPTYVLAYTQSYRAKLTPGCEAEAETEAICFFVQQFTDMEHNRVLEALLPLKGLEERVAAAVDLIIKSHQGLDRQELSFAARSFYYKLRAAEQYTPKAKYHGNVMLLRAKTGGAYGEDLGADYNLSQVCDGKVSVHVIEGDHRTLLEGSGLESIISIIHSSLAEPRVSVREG", "experiment": "FAS thioesterase domain inhibitors, dose response, biochemical, kinetic fluorescence intensity (AID 624326);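 also: rate of fluorescence rise from hydrolysis of a fluorogenic O-methyl fluorescein ester substrate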", "type": "functional"}, "Fatty acid synthase [3]": {"molecular_target": "T3, Fatty acid synthase", "experiment": "FAS thioesterase domain inhibitors, dose response, biochemical, endpoint fluorescence intensity, uHTS hits (AID 624327);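 also: fluorescence from hydrolysis of an O-methyl fluorescein acyl ester substrate by the enzyme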", "type": "functional"}, "[4]": {"molecular_target": "T4, Corticotropin-releasing factor receptor 2/Corticotropin-releasing factor-binding protein (Homo sapiens, UniProt P24387+Q13324)", "T4 sequence (Q13324 whole entry)": "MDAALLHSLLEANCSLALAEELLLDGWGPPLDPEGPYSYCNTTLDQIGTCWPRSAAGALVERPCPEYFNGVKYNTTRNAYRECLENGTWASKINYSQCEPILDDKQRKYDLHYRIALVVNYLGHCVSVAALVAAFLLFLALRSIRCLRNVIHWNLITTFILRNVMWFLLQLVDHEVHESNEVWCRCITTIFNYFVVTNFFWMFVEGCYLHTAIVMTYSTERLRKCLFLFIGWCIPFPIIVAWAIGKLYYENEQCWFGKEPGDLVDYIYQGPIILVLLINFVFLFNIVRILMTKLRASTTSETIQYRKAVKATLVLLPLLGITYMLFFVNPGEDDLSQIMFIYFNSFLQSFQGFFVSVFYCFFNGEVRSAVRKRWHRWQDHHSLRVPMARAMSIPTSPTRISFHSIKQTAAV", "T4 sequence (P24387 whole entry)": "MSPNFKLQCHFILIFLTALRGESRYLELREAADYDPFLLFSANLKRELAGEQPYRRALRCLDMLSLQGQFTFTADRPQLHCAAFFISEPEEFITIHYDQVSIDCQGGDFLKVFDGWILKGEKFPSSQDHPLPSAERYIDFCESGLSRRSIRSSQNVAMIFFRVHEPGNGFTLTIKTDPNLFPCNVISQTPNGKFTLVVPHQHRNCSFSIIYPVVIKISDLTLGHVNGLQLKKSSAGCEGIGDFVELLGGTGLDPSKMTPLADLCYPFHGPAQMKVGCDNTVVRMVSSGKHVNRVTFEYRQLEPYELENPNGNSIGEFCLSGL", "experiment": "activators of CRF receptor 2 with binding protein – uHTS hits, confirmation (AID 602473)", "type": "functional", "conditions": "read-out: EC50_Mean"}, "[5]": {"molecular_target": "T5, Zinc finger protein mex-5 (Caenorhabditis elegans, UniProt Q9XUB2)", "T5 sequence (Q9XUB2 whole entry)": "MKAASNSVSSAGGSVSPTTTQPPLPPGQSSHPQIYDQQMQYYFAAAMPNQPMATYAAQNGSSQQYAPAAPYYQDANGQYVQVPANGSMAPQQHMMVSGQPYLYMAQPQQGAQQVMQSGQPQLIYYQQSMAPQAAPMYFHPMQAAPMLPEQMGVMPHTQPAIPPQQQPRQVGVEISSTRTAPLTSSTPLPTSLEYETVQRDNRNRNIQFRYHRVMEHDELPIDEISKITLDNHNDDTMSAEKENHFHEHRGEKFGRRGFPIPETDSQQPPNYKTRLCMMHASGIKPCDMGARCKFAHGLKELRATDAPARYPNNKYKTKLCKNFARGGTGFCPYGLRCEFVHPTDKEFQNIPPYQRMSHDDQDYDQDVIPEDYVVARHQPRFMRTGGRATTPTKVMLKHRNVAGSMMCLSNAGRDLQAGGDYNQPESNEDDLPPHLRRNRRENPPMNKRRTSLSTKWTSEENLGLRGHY", "experiment": "MEX-5/TCR-2 RNA interaction inhibitors, dose response, biochemical, C. elegans, fluorescence polarization (AID 1960)"}, "[6]": {"molecular_target": "T6, Carboxy-terminal domain RNA polymerase II polypeptide A small phosphatase 1 (Homo sapiens, UniProt Q9GZU7)", "T6 sequence (Q9GZU7 whole entry)": "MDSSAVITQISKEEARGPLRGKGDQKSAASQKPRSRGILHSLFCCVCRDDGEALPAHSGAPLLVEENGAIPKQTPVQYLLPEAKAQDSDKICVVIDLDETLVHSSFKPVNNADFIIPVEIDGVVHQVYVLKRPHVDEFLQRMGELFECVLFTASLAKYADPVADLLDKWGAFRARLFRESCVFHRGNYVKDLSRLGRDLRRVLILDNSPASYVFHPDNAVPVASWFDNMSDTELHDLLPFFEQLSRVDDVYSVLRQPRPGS", "experiment": "inhibitors of CTDSP1, concentration-response testing, biochemical assay, absorbance-based, actives from ultra-high-throughput screening (AID 540297)", "type": "functional"}, "[7]": {"experiment": "Shn3 3'UTR reporter inhibitors, dose response, cell-based, Clone20 osteoblasts, firefly luciferase, cherry-picked (AID 624132)", "type": "functional"}, "[8]": {"experiment": "control 3'UTR Renilla luciferase suppression, dose response, counter-screen for Shn3 inhibitor project, cell-based, Clone20-Shn3RL, cherry-picked (AID 624133)", "type": "functional"}, "cells": {"experiment": "cells", "type": "functional"}, "[9]": {"experiment": "inhibitors of intracellular T. cruzi replication, confirmation, NIH3T3 host cells, beta-gal luminescence (AID 2044);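 also: luminescent beta-galactosidase reporter signal from transgenic T. cruzi replicating inside host cells; inhibitors lower the luminescence signal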", "type": "functional, cell-based"}, "[10]": {"experiment": "cytotoxicity toward NIH3T3 fibroblasts, dose response, counter-screen, cell-based, ATP luminescence, mouse fibroblasts (AID 2010);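 also: cells exposed to compound for about 90 hours before reading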", "type": "functional"}}, "note": "Active and inactive are the calls of the source.", "data": [{"smiles": "COc1ccccc1NC(=O)Oc1ccc(NC(=O)c2ccco2)cc1", "values": [{"measurement": "IC50", "setting": "Large T antigen", "result": "22.9 µM (active)"}]}, {"smiles": "C=CCn1c(SCC(=O)N(CC)C2CCS(=O)(=O)C2)nnc1-c1ccccc1", "note": "(configuration not stated)", "values": [{"measurement": "IC50", "setting": "[1]", "result": "> 20 µM (inactive)"}]}, {"smiles": "Cc1ccc(N2C(=O)NC(=O)/C(=C/Nc3ccc(S(=O)(=O)N(C)C)cc3)C2=O)cc1", "values": [{"measurement": "IC50", "setting": "Protein skinhead-1", "result": "> 100 µM (inactive)"}]}, {"smiles": "CN1CCc2nc(SCc3ccccc3Br)c(C#N)cc2C1", "values": [{"measurement": "IC50", "setting": "Fatty acid synthase [2]", "result": "6.01 µM (active)"}, {"measurement": "IC50", "setting": "Fatty acid synthase [3]", "result": "7.9 µM (active)"}]}, {"smiles": "O=C1NC(=O)N(c2ccc(F)cc2)C(=O)/C1=C/c1c[nH]c2ccccc12", "values": [{"measurement": "EC50", "setting": "[4]", "result": "10.3 µM (active)"}, {"measurement": "EC50", "setting": "[5]", "result": "> 300 µM (inconclusive)"}]}, {"smiles": "O=C(CCCCCN1C(=O)c2cccc3cccc(c23)C1=O)NCc1ccco1", "values": [{"measurement": "IC50", "setting": "[1]", "result": "> 20 µM (inactive)"}]}, {"smiles": "Cc1ccc(C(=O)Nc2nc(-c3ccc(F)cc3)cs2)o1", "values": [{"measurement": "IC50", "setting": "Protein skinhead-1", "result": "> 100 µM (inactive)"}]}, {"smiles": "Cc1cccc(N2CCN(C(=O)COc3ccc4ccc(=O)oc4c3)CC2)c1C", "values": [{"measurement": "IC50", "setting": "Fatty acid synthase [2]", "result": "5.23 µM (active)"}, {"measurement": "IC50", "setting": "Fatty acid synthase [3]", "result": "3.84 µM (active)"}]}, {"smiles": "COc1ccccc1C(=O)Nc1c2c(nn1-c1cccc(C)c1C)CS(=O)(=O)C2", "values": [{"measurement": "IC50", "setting": "[6]", "result": "10.1 µM (active)"}, {"measurement": "IC50", "setting": "[1]", "result": "> 20 µM (inactive)"}]}, {"smiles": "O=C(c1cc2cc([N+](=O)[O-])ccc2oc1=O)N1CCN(C2CCCCC2)CC1", "values": [{"measurement": "IC50", "setting": "Fatty acid synthase [2]", "result": "9.68 µM (active)"}, {"measurement": "IC50", "setting": "Fatty acid synthase [3]", "result": "13.9 µM (active)"}]}, {"smiles": "COc1ccc(/C=C(\\NC(=O)c2ccc([N+](=O)[O-])cc2)C(=O)N2CCOCC2)cc1", "values": [{"measurement": "IC50", "setting": "Fatty acid synthase [2]", "result": "0.848 µM (active)"}, {"measurement": "IC50", "setting": "Fatty acid synthase [3]", "result": "1.34 µM (active)"}]}, {"smiles": "COc1ccc(OC)c(C(c2nnnn2Cc2ccccc2)N2CCN(C3CCCCC3)CC2)c1", "note": "(configuration not stated)", "values": [{"measurement": "AC50", "setting": "[7]", "result": "> 70 µM (inactive)"}, {"measurement": "AC50", "setting": "[8]", "result": "30.4 µM (active)"}]}, {"smiles": "N#CC1=C2SCN(c3ccccc3)CN2C(=O)CC1c1ccccc1Cl", "note": "(configuration not stated)", "values": [{"measurement": "IC50", "setting": "Large T antigen", "result": "36.3 µM (active)"}]}, {"smiles": "Cc1cc(OCc2cccc(Cl)c2)c(C)cc1CN1CCOCC1", "values": [{"measurement": "IC50", "setting": "Protein skinhead-1", "result": "6.33 µM (active)"}]}, {"smiles": "CCOCC(=O)Nc1ccc(C)c(Cl)c1", "values": [{"measurement": "IC50", "setting": "cells", "result": "37.1 µM (active)"}, {"measurement": "IC50", "setting": "Protein skinhead-1", "result": "> 100 µM (inactive)"}]}, {"smiles": "c1ccc(-c2ccc(OCCCNC3CCCC3)cc2)cc1", "values": [{"measurement": "IC50", "setting": "Protein skinhead-1", "result": "20.8 µM (active)"}, {"measurement": "EC50", "setting": "[9]", "result": "1.03 µM (active)"}, {"measurement": "EC50", "setting": "[10]", "result": "> 60 µM (not active)"}]}, {"smiles": "CCCNC(=O)c1ccc2snnc2c1", "values": [{"measurement": "IC50", "setting": "Protein skinhead-1", "result": "> 100 µM (inactive)"}]}]}
